{
  "source": "patent US10793568B2",
  "about": "“Hormone receptor modulators for treating metabolic conditions and disorders” (ARDELYX, INC., priority 2016, dated 2020)",
  "biological_target": "ligand binding domain of human FXR (Homo sapiens (Human), UniProt Q96RI1)",
  "sequence (Q96RI1 262-486)": "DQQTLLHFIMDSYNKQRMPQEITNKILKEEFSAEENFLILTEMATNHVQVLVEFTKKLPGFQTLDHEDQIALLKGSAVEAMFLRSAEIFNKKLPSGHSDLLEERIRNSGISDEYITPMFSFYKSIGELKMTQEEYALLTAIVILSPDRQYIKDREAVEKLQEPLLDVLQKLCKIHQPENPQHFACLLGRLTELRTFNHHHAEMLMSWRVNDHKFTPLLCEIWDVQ",
  "test": "FXR ligand binding assay (LanthaScreen TR-FRET, SRC2-2 peptide recruitment)",
  "details": "for Emax: extent of activation relative to GW4064, read-out: % Efficacy",
  "procedure": "The affinity of FXR ligands for the ligand binding domain of FXR was determined using a commercially available human FXR ligand binding assay (LanthaScreen, Thermofisher Cat # PV4833). […] Binding of FXR ligands to the FXR ligand binding domain promotes binding of the fluorescein-labelled SRC2-2 peptide. This causes a FRET signal between the terbium-labelled anti-GST antibody and the fluorescein-labelled SRC peptide which are both bound to the FXR ligand binding domain.\nTest compounds are dissolved in DMSO and a 3-fold serial dilution series is generated, then further diluted into assay buffer. The compounds are mixed with 5 nM GST-tagged FXR ligand binding domain, 5 nM Tb-labelled anti-GST antibody and 500 nM fluorescein-labelled SRC2-2 peptide in a pH7.4 buffer. The reaction is incubated at room temperature for 1 hour, then the FRET signal is measured as the ratio of the 520 nm/495 nm emission following excitation at 340 nm. The change in FRET signal is plotted against the test article concentration and fit to a 3-parameter logistical equation. The concentration required to produce 50% activation is expressed as pEC50 (−log EC50), and the extent of activation is expressed relative to GW4064 as % activation.",
  "key": {"[1]": {"details": "-log EC50, concentration required to produce 50% activation"}},
  "data": [
    {"compound": "Cc1cc(C(=O)NO)ccc1N1C[C@@H]2C[C@H]1C[C@H]2OCc1c(-c2c(Cl)cccc2Cl)noc1C1CC1", "note": "[Compound I-139, 4-[(1S,4S,5R)-5-{[5-cyclopropyl-3-(2,6-dichlorophenyl)-1,2-oxazol-4-yl]methoxy}-2-azabicyclo[2.2.1]heptan-2-yl]-N-hydroxy-3-methylbenzamide]", "values": [
      {"measurement": "EC50", "setting": "[1]", "result": 0.631, "unit": "nM"},
      {"measurement": "Emax", "result": 132, "unit": "%"}
    ]},
    {"compound": "O=C(O)c1ccc(N2C(=O)[C@@H]3C[C@H]2C[C@H]3OCc2c(-c3c(Cl)cccc3Cl)noc2C2CC2)cn1", "note": "[Compound I-321, 5-[(1S,4R,5R)-5-{[5-cyclopropyl-3-(2,6-dichlorophenyl)-1,2-oxazol-4-yl]methoxy}-3-oxo-2-azabicyclo[2.2.1]heptan-2-yl]pyridine-2-carboxylic Acid]", "values": [
      {"measurement": "pEC50", "setting": "[1]", "result": 7.6},
      {"measurement": "Emax", "result": 146, "unit": "%"}
    ]},
    {"compound": "O=C(O)c1ccc(N2C(=O)[C@@H]3C[C@H]2C[C@H]3OCc2c(-c3c(Cl)cccc3Cl)noc2C2CC2)nc1", "note": "[Compound I-322, 6-[(1S,4R,5R)-5-{[5-cyclopropyl-3-(2,6-dichlorophenyl)-1,2-oxazol-4-yl]methoxy}-3-oxo-2-azabicyclo[2.2.1]heptan-2-yl]pyridine-3-carboxylic acid]", "values": [
      {"measurement": "pEC50", "setting": "[1]", "result": 7.4},
      {"measurement": "Emax", "result": 132, "unit": "%"}
    ]},
    {"compound": "O=C(O)c1ncc(N2C(=O)[C@@H]3C[C@H]2C[C@H]3OCc2c(-c3c(Cl)cccc3Cl)noc2C2CC2)cn1", "note": "[Compound I-323, 5-[(1S,4R,5R)-5-{[5-cyclopropyl-3-(2,6-dichlorophenyl)-1,2-oxazol-4-yl]methoxy}-3-oxo-2-azabicyclo[2.2.1]heptan-2-yl]pyrimidine-2-carboxylic Acid]", "values": [
      {"measurement": "pEC50", "setting": "[1]", "result": 6.4},
      {"measurement": "Emax", "result": 103, "unit": "%"}
    ]},
    {"compound": "O=C(O)c1cnc(N2C(=O)[C@@H]3C[C@H]2C[C@H]3OCc2c(-c3c(Cl)cccc3Cl)noc2C2CC2)cn1", "note": "[Compound I-324, 5-[(1S,4R,5R)-5-{[5-cyclopropyl-3-(2,6-dichlorophenyl)-1,2-oxazol-4-yl]methoxy}-3-oxo-2-azabicyclo[2.2.1]heptan-2-yl]pyrazine-2-carboxylic Acid]", "values": [
      {"measurement": "pEC50", "setting": "[1]", "result": 7.1},
      {"measurement": "Emax", "result": 140, "unit": "%"}
    ]},
    {"compound": "O=C(O)c1ccc(N2C(=O)[C@@H]3C[C@H]2C[C@H]3OCc2c(-c3c(Cl)cccc3Cl)noc2C2CC2)nn1", "note": "[Compound I-325, 6-[(1S,4R,5R)-5-{[5-cyclopropyl-3-(2,6-dichlorophenyl)-1,2-oxazol-4-yl]methoxy}-3-oxo-2-azabicyclo[2.2.1]heptan-2-yl]pyridazine-3-carboxylic Acid]", "values": [
      {"measurement": "pEC50", "setting": "[1]", "result": 6.6},
      {"measurement": "Emax", "result": 104, "unit": "%"}
    ]},
    {"compound": "O=C(O)c1ncc(N2C(=O)[C@@H]3C[C@H]2C[C@H]3OCc2c(-c3c(Cl)cccc3Cl)noc2C2CC2)cc1F", "note": "[Compound I-326, 5-[(1S,4R,5R)-5-{[5-cyclopropyl-3-(2,6-dichlorophenyl)-1,2-oxazol-4-yl]methoxy}-3-oxo-2-azabicyclo[2.2.1]heptan-2-yl]-3-fluoropyridine-2-carboxylic Acid]", "values": [
      {"measurement": "pEC50", "setting": "[1]", "result": 7.1},
      {"measurement": "Emax", "result": 132, "unit": "%"}
    ]},
    {"compound": "O=C(O)CCc1ccc(N2C(=O)[C@@H]3C[C@H]2C[C@H]3OCc2c(-c3c(Cl)cccc3Cl)noc2C2CC2)cn1", "note": "[Compound I-327, 3-{5-[(1S,4R,5R)-5-{[5-cyclopropyl-3-(2,6-dichlorophenyl)-1,2-oxazol-4-yl]methoxy}-3-oxo-2-azabicyclo[2.2.1]heptan-2-yl]pyridin-2-yl}propanoic Acid]", "values": [
      {"measurement": "pEC50", "setting": "[1]", "result": ">5.5"}
    ]},
    {"compound": "O=C(O)CCc1ncc(N2C(=O)[C@@H]3C[C@H]2C[C@H]3OCc2c(-c3c(Cl)cccc3Cl)noc2C2CC2)cc1F", "note": "[Compound I-328, 3-{5-[(1S,4R,5R)-5-{[5-cyclopropyl-3-(2,6-dichlorophenyl)-1,2-oxazol-4-yl]methoxy}-3-oxo-2-azabicyclo[2.2.1]heptan-2-yl]-3-fluoropyridin-2-yl}propanoic Acid]", "values": [
      {"measurement": "pEC50", "setting": "[1]", "result": 6.9},
      {"measurement": "Emax", "result": 87, "unit": "%"}
    ]},
    {"compound": "CO[C@@H]1CCC[C@H]1S(=O)(=O)NC(=O)c1ncc(N2C(=O)[C@@H]3C[C@H]2C[C@H]3OCc2c(-c3c(Cl)cccc3Cl)noc2C2CC2)cc1F", "note": "[Compound I-348, 5-[(1S,4R,5R)-5-{[5-cyclopropyl-3-(2,6-dichlorophenyl)-1,2-oxazol-4-yl]methoxy}-3-oxo-2-azabicyclo[2.2.1]heptan-2-yl]-3-fluoro-N-{[(1R,2R)-2-methoxycyclopentyl]sulfonyl}pyridine-2-carboxamide]", "values": [
      {"measurement": "pEC50", "setting": "[1]", "result": 8},
      {"measurement": "Emax", "result": 171, "unit": "%"}
    ]},
    {"compound": "O=C(NS(=O)(=O)[C@@H]1CCC[C@H]1O)c1ncc(N2C(=O)[C@@H]3C[C@H]2C[C@H]3OCc2c(-c3c(Cl)cccc3Cl)noc2C2CC2)cc1F", "note": "[Compound I-349, 5-[(1S,4R,5R)-5-{[5-cyclopropyl-3-(2,6-dichlorophenyl)-1,2-oxazol-4-yl]methoxy}-3-oxo-2-azabicyclo[2.2.1]heptan-2-yl]-3-fluoro-N-{[(1R,2R)-2-hydroxycyclopentyl]sulfonyl}pyridine-2-carboxamide]", "values": [
      {"measurement": "pEC50", "setting": "[1]", "result": 8.2},
      {"measurement": "Emax", "result": 171, "unit": "%"}
    ]},
    {"compound": "O=C(NS(=O)(=O)[C@@H]1CCC[C@H]1O)c1ccc(N2C(=O)[C@@H]3C[C@H]2C[C@H]3OCc2c(-c3c(Cl)cccc3Cl)noc2C2CC2)cn1", "note": "[Compound I-350, 5-[(1S,4R,5R)-5-{[5-cyclopropyl-3-(2,6-dichlorophenyl)-1,2-oxazol-4-yl]methoxy}-3-oxo-2-azabicyclo[2.2.1]heptan-2-yl]-N-{[(1R,2R)-2-hydroxycyclopentyl]sulfonyl}pyridine-2-carboxamide]", "values": [
      {"measurement": "pEC50", "setting": "[1]", "result": 8.1},
      {"measurement": "Emax", "result": 170, "unit": "%"}
    ]},
    {"compound": "O=C(NS(=O)(=O)C1CC1)c1ccc(N2C(=O)[C@@H]3C[C@H]2C[C@H]3OCc2c(-c3c(Cl)cccc3Cl)noc2C2CC2)cn1", "note": "[Compound I-351, 5-((1S,4R,5R)-5-((5-cyclopropyl-3-(2,6-dichlorophenyl)isoxazol-4-yl)methoxy)-3-oxo-2-azabicyclo[2.2.1]heptan-2-yl)-N-(cyclopropylsulfonyl)picolinamide]", "values": [
      {"measurement": "pEC50", "setting": "[1]", "result": 7.6},
      {"measurement": "Emax", "result": 132, "unit": "%"}
    ]},
    {"compound": "O=C(NS(=O)(=O)C1CCOCC1)c1ccc(N2C(=O)[C@@H]3C[C@H]2C[C@H]3OCc2c(-c3c(Cl)cccc3Cl)noc2C2CC2)cn1", "note": "[Compound I-352, 5-((1S,4R,5R)-5-((5-cyclopropyl-3-(2,6-dichlorophenyl)isoxazol-4-yl)methoxy)-3-oxo-2-azabicyclo[2.2.1]heptan-2-yl)-N-((tetrahydro-2H-pyran-4-yl)sulfonyl)picolinamide]", "values": [
      {"measurement": "pEC50", "setting": "[1]", "result": 8},
      {"measurement": "Emax", "result": 154, "unit": "%"}
    ]},
    {"compound": "O=C(NS(=O)(=O)C1CCCC1)c1ccc(N2C(=O)[C@@H]3C[C@H]2C[C@H]3OCc2c(-c3c(Cl)cccc3Cl)noc2C2CC2)cn1", "note": "[Compound I-353, N-(cyclopentylsulfonyl)-5-((1S,4R,5R)-5-((5-cyclopropyl-3-(2,6-dichlorophenyl)isoxazol-4-yl)methoxy)-3-oxo-2-azabicyclo[2.2.1]heptan-2-yl)picolinamide]", "values": [
      {"measurement": "pEC50", "setting": "[1]", "result": 8.3},
      {"measurement": "Emax", "result": 159, "unit": "%"}
    ]},
    {"compound": "CC1(C)CC(S(=O)(=O)NC(=O)c2ccc(N3C(=O)[C@@H]4C[C@H]3C[C@H]4OCc3c(-c4c(Cl)cccc4Cl)noc3C3CC3)cn2)CCO1", "note": "(stereo partly drawn) [Compound I-354, 5-((1S,4R,5R)-5-((5-cyclopropyl-3-(2,6-dichlorophenyl)isoxazol-4-yl)methoxy)-3-oxo-2-azabicyclo[2.2.1]heptan-2-yl)-N-((2,2-dimethyltetrahydro-2H-pyran-4-yl)sulfonyl)picolinamide]", "values": [
      {"measurement": "pEC50", "setting": "[1]", "result": 8.1},
      {"measurement": "Emax", "result": 138, "unit": "%"}
    ]},
    {"compound": "O=C(NS(=O)(=O)C1CC1)c1ncc(N2C(=O)[C@@H]3C[C@H]2C[C@H]3OCc2c(-c3c(Cl)cccc3Cl)noc2C2CC2)cc1F", "note": "[Compound I-355, 5-((1S,4R,5R)-5-((5-cyclopropyl-3-(2,6-dichlorophenyl)isoxazol-4-yl)methoxy)-3-oxo-2-azabicyclo[2.2.1]heptan-2-yl)-N-(cyclopropylsulfonyl)-3-fluoropicolinamide]", "values": [
      {"measurement": "pEC50", "setting": "[1]", "result": 7.9},
      {"measurement": "Emax", "result": 157, "unit": "%"}
    ]},
    {"compound": "O=C(NS(=O)(=O)C1CCCC1)c1ncc(N2C(=O)[C@@H]3C[C@H]2C[C@H]3OCc2c(-c3c(Cl)cccc3Cl)noc2C2CC2)cc1F", "note": "[Compound I-356, N-(cyclopentylsulfonyl)-5-((1S,4R,5R)-5-((5-cyclopropyl-3-(2,6-dichlorophenyl)isoxazol-4-yl)methoxy)-3-oxo-2-azabicyclo[2.2.1]heptan-2-yl)-3-fluoropicolinamide]", "values": [
      {"measurement": "pEC50", "setting": "[1]", "result": 8.6},
      {"measurement": "Emax", "result": 168, "unit": "%"}
    ]},
    {"compound": "CC1(C)CC(S(=O)(=O)NC(=O)c2ncc(N3C(=O)[C@@H]4C[C@H]3C[C@H]4OCc3c(-c4c(Cl)cccc4Cl)noc3C3CC3)cc2F)CCO1", "note": "(stereo partly drawn) [Compound I-357, 5-((1S,4R,5R)-5-((5-cyclopropyl-3-(2,6-dichlorophenyl)isoxazol-4-yl)methoxy)-3-oxo-2-azabicyclo[2.2.1]heptan-2-yl)-N-((2,2-dimethyltetrahydro-2H-pyran-4-yl)sulfonyl)-3-fluoropicolinamide]", "values": [
      {"measurement": "pEC50", "setting": "[1]", "result": 8.4},
      {"measurement": "Emax", "result": 166, "unit": "%"}
    ]},
    {"compound": "C[C@H]1[C@H]2C[C@H](C[C@@H]2OCc2c(-c3c(Cl)cccc3Cl)noc2C2CC2)N1c1ccc(C(=O)O)cc1", "note": "[Compound I-361, 4-[(1R,3S,4R,5S)-5-[[5-cyclopropyl-3-(2,6-dichlorophenyl)-1,2-oxazol-4-yl]methoxy]-3-methyl-2-azabicyclo[2.2.1]heptan-2-yl]benzoic acid]", "values": [
      {"measurement": "pEC50", "setting": "[1]", "result": 6},
      {"measurement": "Emax", "result": 52, "unit": "%"}
    ]},
    {"compound": "C[C@@H]1[C@@H]2C[C@@H](C[C@H]2OCc2c(-c3c(Cl)cccc3Cl)noc2C2CC2)N1c1ccc(C(=O)O)c(F)c1", "note": "[Compound I-362, 4-[(1S,3R,4S,5R)-5-[[5-cyclopropyl-3-(2,6-dichlorophenyl)-1,2-oxazol-4-yl]methoxy]-3-methyl-2-azabicyclo[2.2.1]heptan-2-yl]-2-fluorobenzoic acid]", "values": [
      {"measurement": "pEC50", "setting": "[1]", "result": 7.2},
      {"measurement": "Emax", "result": 72, "unit": "%"}
    ]}
  ]
}
